Assay results published in US20260042769A1, “TRIARYL AGONISTS OF ALPHA-2 ADRENERGIC RECEPTORS” (ALCEPTOR THERAPEUTICS, INC., priority 2023, published 2026).

Molecular target: T1, human ADRA2B receptor (Homo sapiens, UniProt P18089)
T1 construct: expressed in transfected cells
T1 sequence (P18089 1-450): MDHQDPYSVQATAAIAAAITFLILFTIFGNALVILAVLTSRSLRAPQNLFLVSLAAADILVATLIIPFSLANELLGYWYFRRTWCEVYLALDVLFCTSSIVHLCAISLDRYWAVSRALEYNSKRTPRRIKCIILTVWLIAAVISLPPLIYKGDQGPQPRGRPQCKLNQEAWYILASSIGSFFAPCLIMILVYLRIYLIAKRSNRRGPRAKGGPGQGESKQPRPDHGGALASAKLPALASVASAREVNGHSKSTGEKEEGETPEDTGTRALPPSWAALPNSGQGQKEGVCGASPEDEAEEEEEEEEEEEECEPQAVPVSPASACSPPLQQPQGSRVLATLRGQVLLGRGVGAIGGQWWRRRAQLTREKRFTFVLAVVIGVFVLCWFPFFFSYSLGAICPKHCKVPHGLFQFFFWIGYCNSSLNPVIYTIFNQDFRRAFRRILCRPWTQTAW
Test: GTPγS agonist assay, ADRA2B receptor
Type: biochemical
Details: read-out: GTPase - Human Alpha2B EC50
Summary of the method: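 CHO-K1 membranes stably expressing human ADRA2B (5 μg protein) in 20 mM HEPES, 10 mM MgCl2, 200 mM NaCl with GDP, preincubated 10 min at room temperature with compound. Binding reaction 1 h at 37° C; bound label collected on GF/C filters, washed, read by scintillation counting.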

Row | EC50 [nM] | Compound
1 | 10 to 50 | COc1nccc(CC(c2c[nH]cn2)c2cccc(Cl)c2OC)n1 (stereo not shown) [Compound 198, 4-[2-(3-chloro-2-methoxyphenyl)-2-(4-imidazolyl)ethyl]-2-methoxypyrimidine]
2 | > 500 | COc1nccc(CC(c2ccc(C(F)(F)F)cc2)c2c[nH]cn2)n1 (stereo not shown) [Compound 199, 4-{2-(4-imidazolyl)-2-[p-(trifluoromethyl)phenyl]ethyl}-2-methoxypyrimidine]
3 | < 10 | COc1nccc(CC(c2c[nH]cn2)c2cccc(Cl)c2Cl)n1 (stereo not shown) [Compound 200, 4-[2-(2,3-dichlorophenyl)-2-(4-imidazolyl)ethyl]-2-methoxypyrimidine]
4 | > 500 | FC(F)(F)c1ccc(C(Cc2cccnn2)c2c[nH]cn2)c(Cl)c1 (stereo not shown) [Compound 201, 3-{2-[2-chloro-4-(trifluoromethyl)phenyl]-2-(4-imidazolyl)ethyl} pyridazine]
5 | > 500 | COc1nccc(CC(c2ccc(OC(F)(F)F)cc2)c2c[nH]cn2)n1 (stereo not shown) [Compound 203, 4-[2-(4-imidazolyl)-2 (p-trifluoromethoxyphenyl)ethyl]-2-methoxypyrimidine]
6 | > 500 | COc1cc(OC(F)(F)F)cc(C(Cc2ccnc(OC)n2)c2c[nH]cn2)c1 (stereo not shown) [Compound 204, 4-[2-(4-imidazolyl)-2-(3-methoxy-5-trifluoromethoxyphenyl)ethyl]-2-methoxypyrimidine]
7 | 10 to 50 | Cc1cccc([C@H](Cc2cccnn2)c2c[nH]cn2)c1Cl [Compound 213, 3-[(S)-2-(2-chloro-3-tolyl)-2-(4-imidazolyl)ethyl] pyridazine]
8 | > 500 | Cc1cccc([C@@H](Cc2cccnn2)c2c[nH]cn2)c1Cl [Compound 214, 3-[(R)-2-(2-chloro-3-tolyl)-2-(4-imidazolyl)ethyl] pyridazine]
9 | > 500 | Fc1cccc(C(Cc2cccnn2)c2c[nH]cn2)c1Cl (stereo not shown) [Compound 218, 3-[2-(2-chloro-3-fluorophenyl)-2-(4-imidazolyl)ethyl] pyridazine]
10 | > 500 | Fc1c(Cl)cccc1C(Cc1cccnn1)c1c[nH]cn1 (stereo not shown) [Compound 219, 3-[2-(3-chloro-2-fluorophenyl)-2-(4-imidazolyl)ethyl] pyridazine]
11 | > 500 | FC(F)(F)Oc1ccc(C(Cc2cccnn2)c2c[nH]cn2)cc1 (stereo not shown) [Compound 220, 3-[2-(4-imidazolyl)-2-(p-trifluoromethoxyphenyl)ethyl]pyridazine]
12 | > 500 | Cc1ccc(C(F)(F)F)cc1C(Cc1cccnn1)c1c[nH]cn1 (stereo not shown) [Compound 221, 3-{2-(4-imidazolyl)-2-[5-(trifluoromethyl)-2-tolyl]ethyl}pyridazine]
13 | > 500 | COc1ccc(C(Cc2cccnn2)c2c[nH]cn2)cc1 (stereo not shown) [Compound 222, 3-[2-(4-imidazolyl)-2-(p-methoxyphenyl)ethyl] pyridazine]
14 | > 500 | FC(F)(F)c1ccc(C(Cc2cccnn2)c2c[nH]cn2)cc1 (stereo not shown) [Compound 223, 3-{2-(4-imidazolyl)-2-[p-(trifluoromethyl)phenyl]ethyl}pyridazine]
15 | > 500 | Fc1ccc(C(Cc2cccnn2)c2c[nH]cn2)cc1F (stereo not shown) [Compound 224, 3-[2-(3,4-difluorophenyl)-2-(4-imidazolyl)ethyl] pyridazine]
16 | > 500 | Cc1ccc(Cl)cc1C(Cc1cccnn1)c1c[nH]cn1 (stereo not shown) [Compound 225, 3-[2-(5-chloro-2-tolyl)-2-(4-imidazolyl)ethyl] pyridazine]
17 | > 500 | CCOc1ccc(C(Cc2cccnn2)c2c[nH]cn2)cc1C(F)(F)F (stereo not shown) [Compound 226, 3-(2-[4-ethoxy-3-(trifluoromethyl)phenyl]-2-(4-imidazolyl)ethyl] pyridazine]
18 | > 500 | COc1ccc(Cl)c(C(Cc2cccnn2)c2c[nH]cn2)c1 (stereo not shown) [Compound 227, 3-[2-(2-chloro-5-methoxyphenyl)-2-(4-imidazolyl)ethyl] pyridazine]
19 | > 500 | C#Cc1cccc(C(Cc2cccnn2)c2c[nH]cn2)c1 (stereo not shown) [Compound 229, 3-[2-(m-ethynylphenyl)-2-(4-imidazolyl)ethyl] pyridazine]

Row | EC50 [nM] | Compound
20 | > 500 | Cn1ncc2cc(C(Cc3cccnn3)c3c[nH]cn3)ccc21 (stereo not shown) [Compound 230, 5-[1-(4-imidazolyl)-2-(3-pyridazinyl)ethyl]-1-methyl-1H-indazole]
21 | > 500 | CCOc1c(F)cccc1C(Cc1cccnn1)c1c[nH]cn1 (stereo not shown) [Compound 231, 3-[2-(2-ethoxy-3-fluorophenyl)-2-(4-imidazolyl)ethyl] pyridazine]
22 | 10 to 50 | Cc1nnc(CC(c2c[nH]cn2)c2cccc(C)c2C)o1 (stereo not shown) [Compound 241, 2-[2-(4-imidazolyl)-2-(2,3-xylyl)ethyl]-5-methyl-1,3,4-oxadiazole]
23 | < 10 | Cc1cccc(C(Cc2cnn(C3CC3)c2)c2c[nH]cn2)c1C (stereo not shown) [Compound 271, 1-cyclopropyl-4-[2-(4-imidazolyl)-2-(2,3-xylyl)ethyl]pyrazole]
24 | 10 to 50 | Cc1cccc(C(Cc2cnn(C(C)C)c2)c2c[nH]cn2)c1C (stereo not shown) [Compound 277, 4-[2-(4-imidazolyl)-2-(2,3-xylyl)ethyl]-1-isopropylpyrazole]
25 | 10 to 50 | Cc1cnc(CC(c2c[nH]cn2)c2cccc3c2OCC3)s1 (stereo not shown) [Compound 279, 2-[2-(2,3-dihydro-1-benzofuran-7-yl)-2-(4-imidazolyl)ethyl]-5-methyl-1,3-thiazole]
26 | > 500 | c1cc2c(c([C@@H](Cc3cnn(C4CC4)c3)c3c[nH]cn3)c1)OCC2 [Compound 289]
27 | < 10 | c1cc2c(c([C@H](Cc3cnn(C4CC4)c3)c3c[nH]cn3)c1)OCC2 [Compound 290, 4-[(S)-2-(2,3-dihydro-1-benzofuran-7-yl)-2-(4-imidazolyl)ethyl]-1-]
28 | 10 to 50 | Cc1cccc(C(Cc2ccc(N3CCCC3)nc2)c2c[nH]cn2)c1C (stereo not shown) [Compound 309, 4-{2-[6-(1-pyrrolidinyl)-3-pyridyl]-1-(2,3-xylyl)ethyl}imidazole]
29 | < 10 | Cc1cccc(C(Cc2cc(C(F)(F)F)nn2C)c2c[nH]cn2)c1C (stereo not shown) [Compound 310, 5-[2-(4-imidazolyl)-2-(2,3-xylyl)ethyl]-1-methyl-3-(trifluoromethyl)pyrazole]
30 | 10 to 50 | COc1ncc(CC(c2c[nH]cn2)c2cccc3c2OCC3)c(OC)n1 (stereo not shown) [Compound 312, 5-[2-(2,3-dihydro-1-benzofuran-7-yl)-2-(4-imidazolyl)ethyl]-2,4-dimethoxypyrimidine]
31 | > 500 | c1cnnc(C[C@@H](c2c[nH]cn2)c2cccc3c2CCO3)c1 [Compound 324, 3-[(R)-2-(2,3-dihydro-1-benzofuran-4-yl)-2-(4-imidazolyl)ethyl]pyridazine]
32 | < 10 | COc1cc(CC(c2c[nH]cn2)c2cccc3c2OCC3)nc(OC)n1 (stereo not shown) [Compound 335, 4-(2-(2,3-dihydrobenzofuran-7-yl)-2-(1H-imidazol-4-yl)ethyl)-2,6-dimethoxypyrimidine]
33 | > 500 | Cc1nccc(CC(c2c[nH]cn2)c2cccc3ncoc23)n1 (stereo not shown) [Compound 338, 7-[1-(4-imidazolyl)-2-(2-methyl-4-pyrimidinyl)ethyl]-1,3-benzoxazole]
34 | 50 to 500 | COc1nccc(CC(c2c[nH]cn2)c2cccc3c2OCCCO3)n1 (stereo not shown) [Compound 355, 4-[2-(3,4-dihydro-2H-1,5-benzodioxepin-6-yl)-2-(4-imidazolyl)ethyl]-2-methoxypyrimidine]
35 | > 500 | COc1cccc(C(Cc2cccnn2)c2c[nH]cn2)c1F (stereo not shown) [Compound 360, 3-[2-(2-fluoro-3-methoxyphenyl)-2-(4-imidazolyl)ethyl]pyridazine]
36 | > 500 | FC(F)(F)c1ccc(Cl)c(C(Cc2cccnn2)c2c[nH]cn2)c1 (stereo not shown) [Compound 361, 3-{2-[2-chloro-5-(trifluoromethyl)phenyl]-2-(4-imidazolyl)ethyl}pyridazine]
37 | > 500 | c1cnnc(C[C@H](c2c[nH]cn2)c2cccc3c2OCC3)c1 [Compound 363, 3-[(S)-2-(2,3-dihydro-1-benzofuran-7-yl)-2-(4-imidazolyl)ethyl]pyridazine]

Row | Compound | EC50 [nM]
38 | Clc1ccc(C(Cc2cccnn2)c2c[nH]cn2)cc1 (stereo not shown) [Compound 217, 3-[2-(p-chlorophenyl)-2-(4-imidazolyl)ethyl] pyridazine] | > 500
39 | Cc1cccc(C(Cc2cccnn2)c2c[nH]cn2)c1 (stereo not shown) [Compound 228, 3-[2-(4-imidazolyl)-2-(m-tolyl)ethyl]pyridazine] | > 500
40 | Cc1cccc([C@@H](Cc2cnco2)c2c[nH]cn2)c1C [Compound 365, 5-[(R)-2-(4-imidazolyl)-2-(2,3-xylyl)ethyl]-1,3-oxazole] | > 500
